Measurements reported in US20220402980A1, “CHROMOGRANIN A-DERIVED PEPTIDES AND USES THEREOF” (OSPEDALE SAN RAFFAELE S.R.L., priority 2019, published 2022).
Where a SMILES comes first, the peptide text is derived from it.

How the values were obtained:
[1] = biological target: T1, α5β1 (Homo sapiens, UniProt P05556+P08648); test: Competitive integrin binding assay (isoDGR/STV-HRP probe), α5β1-coated plates
T1 construct: purchased Immunological Sciences (Rome, Italy)
Description: (§1) Peptide binding was measured by a competitive binding assay using as integrin probe a complex made by a N-terminal acetylated isoDGR peptide biotinylated at the E-amino group of the lysine, acetyl-Ciso[…]-bio (SEQ ID No. 29), and a streptavidin-peroxidase conjugate (called isoDGR/STV-HRP)[43].
(§2) Each mixture was then added to integrin-coated wells and left to incubate for 2 h at room temperature. After washing with 25 mM Tris-HCl, pH 7.4, containing 150 mM sodium chloride, 1 mM magnesium chloride, 1 mM manganese chloride, each well was filled with a chromogenic solution (o-phenylenediamine dihydrochloride) and left to incubate for 30 min at room temperature. The chromogenic reaction was stopped by adding 1 N sulfuric acid. The absorbance at 490 nm was then measured using a microtiterplate reader. Ki values were calculated by non-linear regression analysis of competitive binding data using the “One site - Fit Ki” equation of the GraphPad Prism Software using the Kd values of the probe indicated above.

[2] = biological target: αvβ8 (Homo sapiens, UniProt P06756+P26012); test: Competitive integrin binding assay (isoDGR/STV-HRP probe), αvβ8-coated plates; details: Table 3a and text; ± standard error of the mean; read-out: Ki αvβ8
Description: as §1, §2

[3] = biological target: T2, αvβ6 (Homo sapiens, UniProt P06756+P18564); test: Competitive integrin binding assay (isoDGR/STV-HRP probe), αvβ6-coated plates; details: Table 3a and text; ± standard error of the mean; read-out: Ki αvβ6
T2 construct: recombinant human αvβ6 extracellular domain (R&D Systems); purchased R&D Systems (Minneapolis, Minn.)
Description: as §1, §2

[4] = biological target: T3, αvβ6 on human keratinocytes (HaCat) (Homo sapiens, UniProt P06756+P18564); test: Effect of peptides on binding of anti-αvβ6 mAb 10D5 to HaCaT cells (FACS); format: cell-based; details: competition with mAb 10D5
T3 construct: endogenous in cells; host or cells: human skin keratinocytes HaCaT

[5] = Peptide stability in mouse liver microsomal preparations (RP-HPLC); format: in vitro ADME; details: C57BL/6, mouse, liver microsomes; 37° C.; read-out: t1/2 in mouse liver microsomes (converted)
Description: FIG. 14. Stability of peptides 4 and 5 in murine liver microsomes as determined by RP-HPLC. a) RP-HPLC of 4 and 5 after incubation at 37° C. in murine liver microsomes. Peak 1 corresponds to 4 and 5. The peptides were added to murine liver microsomes (454 - μg/ml, final concentration) and incubated for the indicated time, diluted with an equal volume of 90% acetonitrile containing 0.1% TFA and analyzed onto a LiChrospher C18 column (16 ag). No peptide indicates liver microsome aliquot without the peptide. b) Quantification of Peak 1 area (left panel) and height (right panel) of the indicated peptides. The corresponding half-life is also shown.
The stability of compound 4 and 5 in mouse liver microsomal preparations was assessed by HPLC analysis. To this aim microsomes were prepared as follows: 11 g of mouse liver tissue (C57BL/6 mice) was homogenized in cold PBS supplemented with 0.25 M sucrose (3 ml/g of tissue) using a Potter-Elvehjem homogenizer (10 strokes), followed by additional homogenization using a rotor-stator homogenizer (40 sec). The homogenate was filtered through 70 pm cell-strainers, centrifuged three times to remove insoluble materials (500 x g, 5 min; 3000 x g, 30 min; 110000 x g, 90 min, 4° C.). […] Protein concentration was measured by measuring the absorbance at 280 nm with a NanoDrop spectrophotometer (Thermo Scientific). […]

[6] = test system: human bladder carcinoma 5637 cells; test: 5637 cell viability (PrestoBlue); format: cell-based; details: 48 h
Description: FIG. 12. Effect of peptides 4 and 5 on human bladder carcinoma 5637 cell viability. 5637 cells were seeded in a 96-well microtiterplate (20,000 cell/well) and cultured for 16 h at 37° C., 5% CO2. The day after the indicated doses of peptide 4 and 5 were added to the cells and left to incubate for additionally 48 h at 37° C., 5% CO2. Cell viability was assessed using the PrestoBlue* cell viability reagent (ThermoFisher) according to the manufacturer's instructions. Viability of the treated cells was normalized to that of untreated cells and is reported as a percentage (mean±SE of triplicate wells).

[7] = biological target: T4, αvβ6 on human bladder cancer 5637 cells (Homo sapiens, UniProt P06756+P18564); test: Effect of peptides on binding of anti-αvβ6 mAb 10D5 to 5637 cells (FACS); format: cell-based; details: competition with mAb 10D5
T4 construct: cell-surface expressed αvβ6 on human bladder cancer 5637 cells; host or cells: human bladder cancer 5637 cells

[8] = biological target: T5, αvβ5 (Homo sapiens, UniProt P06756+P18084); test: Competitive integrin binding assay (isoDGR/STV-HRP probe), αvβ5-coated plates; details: Table 3a; ± standard error of the mean
T5 construct: purchased Immunological Sciences (Rome, Italy)
Description: as §1, §2

Compound | Ki [1] [nM] | Ki [2] [nM] | Ki [3] [nM] | binding to cell-surface expressed αvβ6 [4] | half-life at 454 μg/ml [5] [h] | cytotoxicity in vitro [6] | binding to cell-surface expressed αvβ6 [7] | Ki [8] [nM]
CC(C)C[C@H](NC(=O)[C@H](CC(=O)O)NC(=O)CNC(=O)[C@H](CCCNC(=N)N)NC(=O)[C@H](CC(C)C)NC(=O)[C@H](CC(N)=O)NC(=O)[C@@H]1CCCN1C(=O)[C@@H](NC(=O)[C@H](C)NC(=O)[C@@H](N)CC(N)=O)C(C)C)C(=O)N[C@@H](CCC(N)=O)C(=O)N[C@H](C(=O)N[C@@H](CC(C)C)C(=O)N[C@@H](C)C(=O)N[C@@H](CCC(N)=O)C(=O)N[C@@H](CCCCN)C(=O)N[C@H](C(=O)N[C@@H](C)C(=O)N[C@@H](CCCNC(=N)N)C(=O)N[C@H](C(=O)O)[C@@H](C)O)C(C)C)C(C)C [peptide 6] | 2317 ± 10 | – | – | – | – | – | – | –
CC[C@H](C)[C@H](NC(=O)[C@H](CCCNC(=N)N)NC(=O)[C@H](CC(C)C)NC(=O)[C@H](CC(=O)O)NC(=O)CNC(=O)[C@H](CCCNC(=N)N)NC(=O)[C@H](CC(C)C)NC(=O)[C@@H](NC(=O)[C@H](CCC(=O)O)NC(=O)[C@@H](N)Cc1ccccc1)[C@@H](C)O)C(=O)N[C@@H](CC(C)C)C(=O)N[C@@H](CO)C(=O)N[C@H](C(=O)N[C@@H](CC(C)C)C(=O)N[C@@H](CCCNC(=N)N)C(=O)N[C@@H](Cc1c[nH]cn1)C(=O)N[C@@H](CCC(N)=O)C(=O)N[C@@H](CC(N)=O)C(=O)N[C@@H](CC(C)C)C(=O)N[C@@H](CC(C)C)C(=O)N[C@@H](CCCCN)C(=O)N[C@@H](CCC(=O)O)C(=O)N[C@@H](CC(C)C)C(=O)N[C@@H](CCC(N)=O)C(=O)N[C@@H](CC(=O)O)C(=O)O)[C@@H](C)CC [peptide 4] (H-FETLRGDLRILSILRHQNLLKELQD-OH; N-terminus and C-terminus assumed) | – | 8.5 ± 3.7 | 1.6 ± 0.3 | bound cell-surface expressed αvβ6 | 1.3 | not cytotoxic | bound cell-surface expressed αvβ6 | 2410 ± 1590
